From US8784929B2 (priority 2007, dated 2014)

Experiments:
αHL-WT [1] = target: T1, αHL-WT (Staphylococcus aureus, UniProt P09616); assay type: biochemical, staphylococcal; details: pH 7
αHL-WT [2] = target: T1, αHL-WT; details: cited from earlier work

T1 sequence (P09616 27-319 limits assumed): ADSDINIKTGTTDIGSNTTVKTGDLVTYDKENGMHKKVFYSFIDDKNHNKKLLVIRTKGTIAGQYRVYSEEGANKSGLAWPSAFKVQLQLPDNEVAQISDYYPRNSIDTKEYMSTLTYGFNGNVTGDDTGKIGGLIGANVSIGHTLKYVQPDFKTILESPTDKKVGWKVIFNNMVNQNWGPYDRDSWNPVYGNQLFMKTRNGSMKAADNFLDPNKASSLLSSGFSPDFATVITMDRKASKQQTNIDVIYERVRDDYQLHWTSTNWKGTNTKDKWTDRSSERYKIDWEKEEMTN

| SMILES | current block on binding to αHL-WT (αHL-WT [1]) | binding of β-cyclodextrin (in words) (αHL-WT [2]) |
| --- | --- | --- |
| COC[C@H]1O[C@@H]2O[C@H]3[C@H](OC)[C@@H](OC)[C@@H](O[C@H]4[C@H](OC)[C@@H](OC)[C@@H](O[C@H]5[C@H](OC)[C@@H](OC)[C@@H](O[C@H]6[C@H](OC)[C@@H](OC)[C@@H](O[C@H]7[C@H](OC)[C@@H](OC)[C@@H](O[C@H]8[C@H](OC)[C@@H](OC)[C@@H](O[C@H]1[C@H](OC)[C@H]2OC)O[C@@H]8COC)O[C@@H]7COC)O[C@@H]6COC)O[C@@H]5COC)O[C@@H]4COC)O[C@@H]3COC [hβCD, heptakis(2,3,6-tri-O-methyl)-β-cyclodextrin] | 95% |  |
| OC[C@H]1O[C@@H]2O[C@H]3[C@H](O)[C@@H](O)[C@@H](O[C@H]4[C@H](O)[C@@H](O)[C@@H](O[C@H]5[C@H](O)[C@@H](O)[C@@H](O[C@H]6[C@H](O)[C@@H](O)[C@@H](O[C@H]7[C@H](O)[C@@H](O)[C@@H](O[C@H]8[C@H](O)[C@@H](O)[C@@H](O[C@H]1[C@H](O)[C@H]2O)O[C@@H]8CO)O[C@@H]7CO)O[C@@H]6CO)O[C@@H]5CO)O[C@@H]4CO)O[C@@H]3CO [β-cyclodextrin] |  | does not bind β-cyclodextrin strongly |
| OC[C@H]1O[C@@H]2O[C@H]3[C@H](O)[C@@H](O)[C@@H](O[C@H]4[C@H](O)[C@@H](O)[C@@H](O[C@H]5[C@H](O)[C@@H](O)[C@@H](O[C@H]6[C@H](O)[C@@H](O)[C@@H](O[C@H]7[C@H](O)[C@@H](O)[C@@H](O[C@H]8[C@H](O)[C@@H](O)[C@@H](O[C@H]9[C@H](O)[C@@H](O)[C@@H](O[C@H]1[C@H](O)[C@H]2O)O[C@@H]9CO)O[C@@H]8CO)O[C@@H]7CO)O[C@@H]6CO)O[C@@H]5CO)O[C@@H]4CO)O[C@@H]3CO [γCD, γ-cyclodextrin] | 68% |  |
